The NIST ThermoML archive (doi:10.1016/j.jct.2008.05.001)
Numbers after ± are expanded uncertainties.

Conditions: 293 K, 101.33 kPa, Pycnometric method

mass density (Liquid) | mass density (Crystal) | Compound
1140 ± 10 kg/m3 |  | CCC1COC(=O)O1 (configuration not stated) [1,2-butylene carbonate]
 | 1320 ± 10 kg/m3 | O=C1OCCO1 [ethylene carbonate]
